Results taken from BigSolDB 2.1.

OCCCCCCO
solubility (mole fraction)
Conditions	283.15 K	288.15 K	293.15 K	298.15 K	303.15 K
in DMAc	0.0205	0.0298	0.0469	0.0688	0.0939
in methanol	0.365	0.428	0.51	0.585	0.698
in n-butanol	0.316	0.389	0.479	0.577	0.689
